The values that follow come from patent US6559288B1, “Ninjurin” (Washington University, priority 1996, dated 2003).

Where no end group is shown, it is not given here.

For one data set, the system named is DRG neurons. Description: DRG neuron/CHO cell co-culture neurite outgrowth. The data set is classed as cell-based, rat. To be noted: for inhibition of the neurite outgrowth promoting effect of ninjurin: peptides 0.5 mg/ml, E17 rat DRG neurons on CHO cells expressing ninjurin. Here is the method: Cell culture and transfection. Chinese hamster ovary (CHO) cells were cultured in F-12 medium supplemented with 10% fetal calf serum (FCS). T cell leukemia cells (Jurkat) were grown in RPMI 1640 with 10% FCS. The expression vector pCMV-ninjurin was constructed by inserting the ninjurin cDNA into the plasmid pCMVneo (Brewer, C. B. (1994). Methods in Cell Biol. 43, 233-245). The pCMVneo or pCMV-ninjurin plasmids was transfected into CHO cells via calcium phosphate precipitation and into Jurkat cells via electroporation. Stable transfectants were selected by growth in medium containing G418 (400 μg/ml) and individual clones were isolated by limiting dilution. […] Primary cultures of neurons from dorsal root ganglia (DRG) were prepared from E17 rat embryos as previously described (Eichler et al., (1989) Brain Res 482, 340-346). Dissociated neurons were plated on confluent monolayers of either control CHO cells or CHO cell expressing ninjurin in 24-well plates. Cultures were grown in a medium which consists of 90% Eagles minimal essential medium (Gibco), 10% FCS, 20 μg/ml each of fluoro-deoxyuridine and uridine, and 50 ng/ml mouse NGF (gift from E. Johnson, Washington U.). Six hr after plating, the cells were fixed with 4% paraformaldehyde in PBS, and immunohistochemistry using anti-neurofilament H antibodies was performed. Following previously established criteria (Gennarini et al., (1991) Neuron 6, 595-606), approximately 50 neurites were chosen for measurement which each emerged from a single distinguishable cell body, were longer than the diameter of the neuronal cell body, and were identifiable over their entire length. The length of each neurite was measured after tracing them from the photomicrographs onto grided (2 mm) transparency film. Statistical analysis was performed using Sigma Plot (version 3.0). […]
Ninjurin-stimulated neurite outgrowth is mediated through the adhesion motif. […] The neuronal cultures were treated with peptides (0.5 mg/ml) corresponding to either the native or mutant sequences of the ninjurin adhesion motif, and neurite extension was monitored.

For data set [1], the system named is ninjurin-expressing Jurkat cell transfectants. Briefly: Inhibition by synthetic peptides of ninjurin-mediated aggregation of ninjurin-expressing Jurkat cell transfectants. The data set is classed as cell-based. Conditions: for inhibition of ninjurin-mediated adhesion relative to wild type peptide 6: single amino acid substitutions in residues 26 to 37, dose-dependent test. How it is done:
(§1) Cell adhesion assays. […] Aggregation assays were performed using Jurkat cells (Shimizu et al., (1990) Nature 345, 250-253) stably transfected with pCMV-ninjurin or pCMVneo (nonrecombinant control). The cells were washed twice with RPMI 1640 containing 5 mM Hepes buffer, suspended to a concentration of 2×10^6 cells/ml in RPMI1640 with 10% FCS, and 100 μl of the cell suspension were added to each well of a flat-bottomed 96-well microtiter plate. The formation of aggregates was examined after 1 hr using phase contrast microscopy. […] The ninjurin positive cells were stained red with 1 mM CMTMR (5-(and-6)-(((4-chloromethyl)benzoyl)amino) tetramethylrhodamine) and control cells were stained green with 1 mM CMFTA (5-chloromethylfluoresceindiacetate) as described in the manufacturer's protocol (Molecular Probes). The cells were resuspended to 1×10^6 cells/ml, and 3 ml of the mixed cell suspension was allowed to form aggregates in 6-well culture plates. The composition of the aggregates was monitored by fluorescence microscopy.
To directly investigate whether the N-terminal extracellular hydrophilic region is responsible for the observed homophilic adhesion, partially overlapping synthetic peptides whose sequences collectively encompass the entire predicted ninjurin extracellular domain were tested for their ability to inhibit the ninjurin-mediated adhesion. Aggregation assays with the ninjurin-expressing Jurkat cell transfectants were performed, and the degree of aggregation was examined after 60 minutes by measuring the number of cells incorporated in aggregates. Peptide 2 inhibited aggregation at a concentration of 0.1 mg/ml, and aggregation was completely abolished at concentrations above 1 mg/ml. In constrast, peptides 1 and 4 had no effect on aggregation at either of these concentrations.
To further delimit the site of interaction, an additional 4 peptides (peptides 5 through 8) were tested for their ability to inhibit ninjurin-mediated aggregation (Data not shown). […] To identify the amino acids most critical for ninjurin-mediated adhesion, peptides (9-15) stretching from residue 26 to 37, each containing single amino acid mutations, were tested in the aggregation assay. The ability of each of these peptides to inhibit ninjurin-mediated adhesion in a dose-dependent manner was examined. The seven residues between prolines 27 and 35 (P27 and P35) were most important.

The test system of the next data set is Jurkat cells. Briefly: Aggregation assay with Jurkat cells stably transfected with pCMV-ninjurin. The data set is classed as cell-based. Here is the method:
as §1
Ninjurin mutants fail to support aggregation. […] To investigate these possibilities, Jurkat cell lines expressing ninjurin molecules containing a double mutation (Arg28 to Asn and Asn29 to Ala) in the ninjurin adhesion motif was generated. […]

Data set [2] concerns the molecule itself. Briefly: aggregation assay, Jurkat cells stably transfected with pCMV-ninjurin against pCMVneo control. Here is the method:
as §1, with “250–253)” for “250-253)”, “2 ×10^6” for “2×10^6”, “µl” for “μl”, “1 ×10^6” for “1×10^6”

A further data set concerns CHO cells. Description: Aggregation assay with ninjurin transfected CHO cells. Type of data set: cell-based, Chinese hamster. To be noted: counted at 15 min intervals, 37° C. How it is done: For aggregation experiments using CHO cells, cells (ninjurin transfected and control) were harvested from confluent plates by treatment with trypsin, washed with F-12 medium, and resuspended at 1×10^6 cells/ml in F-12 with 10% FCS. Aggregation assays were performed on a rotary shaker at 80 rpm. Quantitation of aggregate formation was monitored at 15 min intervals by counting the number of particles using a hemocytometer (Takeichi, M. (1977). J. Cell. Biol. 75, 464-474). The extent of the aggregate formation is inversely proportional to the number of particles, and was determined by calculating an index Nt/No, where Nt and No were the total particle numbers at incubation times t and 0, respectively (Takeichi, 1977). All of the aggregation experiments were performed at 37° C.

The mark [3] stands for this setting: ninjurin-expressing Jurkat transfectants, aggregation examined after 60 minutes.

On to “peptide containing a mutation in this sequence: peptide with a mutant sequence of the ninjurin adhesion motif; which mutation is not stated (PPRWGLRNRPIN; Rat)”, for which the “inhibition of the neurite outgrowth promoting effect of ninjurin” value in the data set with DRG neurons is listed as “no significant inhibitory effect”.
On to “10: residues 26 to 37 with substitution of Trp29 for Ala29 (SEQ ID NO:15) (PPRAGLRNRPIN; Rat) [Peptide 10]”, for which the “inhibition of ninjurin-mediated adhesion relative to wild type peptide 6” value in data set [1] was “less active”.
Turning to PPRWGLRNRPIN [Peptide 6], the “inhibitory activity on ninjurin-mediated aggregation compared with other peptides” value in data set [1] is given as “comparable to peptides 2 or 3”. Moreover, in data set [1] (setting [3]), the “concentration at which aggregation was completely abolished” value is “above 2 mg/ml” and the “concentration at which aggregation was inhibited” value is listed as “higher than 0.4 mg/ml”. Besides, the “inhibition of the neurite outgrowth promoting effect of ninjurin” value with DRG neurons was “inhibited”.
With “12: residues 26 to 37 with substitution of Leu31 to Asn31 (SEQ ID NO:17) (PPRWGNRNRPIN; Rat) [Peptide 12]”, the “inhibition of ninjurin-mediated adhesion relative to wild type peptide 6” value in data set [1] is “did not exhibit altered inhibition”.
Still for that read-out and setting: the same measure for “9: residues 26 to 37 with substitution of Arg28 to Asn28 (SEQ ID NO:14) (PPNWGLRNRPIN; Rat) [Peptide 9]”: “less active”.
Consider “Peptide 14: residues 26 to 37 with substitution of Asn33 for Leu33 (SEQ ID NO:19) (PPRWGLRLRPIN; Rat)”, for which the “inhibition of ninjurin-mediated adhesion relative to wild type peptide 6” value in data set [1] is given as “more effective”; in data set [1] (listed as Asn-33 to Leu33), “greater inhibitory activity than wild type”.
Consider “11: residues 26 to 37 with substitution of Gly29 to Ala29 (SEQ ID NO:16) (PPRWALRNRPIN; Rat) [Peptide 11]”, for which the “inhibition of ninjurin-mediated adhesion relative to wild type peptide 6” value in data set [1] is “did not exhibit altered inhibition”.
For `O=C(O)CN(CCN(CC(=O)O)CC(=O)O)CC(=O)O` [EDTA, reference compound], in the data set with Jurkat cells (ninjurin-expressing Jurkat cells, 1 mM EDTA), the “aggregate formation in the presence of EDTA” value is listed as “no aggregates were detected”.
As to “15: residues 26 to 37 with substitution of Arg34 for Asn34 (SEQ ID NO:20) (PPRWGLRNNPIN; Rat) [Peptide 15]”, the “inhibition of ninjurin-mediated adhesion relative to wild type peptide 6” value in data set [1] is reported as “less active”.
The same measure, in the same setting: then “13: residues 26 to 37 with substitution of Arg32 for Asn32 (SEQ ID NO:18) (PPRWGLNNRPIN; Rat) [Peptide 13]”, with “less active”.

B1: rat ninjurin (other)
chain: MDPGTEEYELNGDLRPGSPGSPDASPPRWGLRNRPINVNHYANKKSAAESMLDIALLMANASQLKAVVEQGNEFAFFVPLVVLISISLVLQIGVGVLLIFLVKYDLNNPAKHAKLDFLNNLATGLVFIIVVVNIFITAFGVQKPVMDVAPRQ
notes: Full-length rat ninjurin (152 amino acids) expressed from pCMV-ninjurin in stably transfected Jurkat or CHO cells; In protein blots and immunoprecipitations it came from cell or tissue lysates; also called rat ninjurin 1; Nerve Injury Induced protein
Turning to B1, in data set [2], the binding result is on record as “binds”.

B2: ninjurin: Nerve Injury Induced protein, 152 amino acids, rat (SEQ ID NO:4), expressed on transfected cells (protein)
chain: B1 chain
modifications: Rat
B2: the “number of particles (aggregate formation)” value with CHO cells was “decrease in the number of particles with time”. The aggregate formation entry in the data set on Jurkat cells (transfected Jurkat cells, after 1 hr) is “formation of large aggregates”. In the data set on DRG neurons (neurons grown for 6 hr on CHO cells expressing ninjurin, approximately 50 neurons), this molecule yielded an average neurite length of 569±134 μm.
